Assay results published in US20240390487A1, “TLR AGONISTS FOR REDUCING ACTIVATION-INDUCED PD-1 EXPRESSION ON T CELLS AND METHODS OF USE” (WISCONSIN ALUMNI RESEARCH FOUNDATION, priority 2016, published 2024).

Key:
OT-1 CD8+ T cells = test: Adoptive transfer of OT-1 T cells and immunization of C57BL/6 mice, marker expression on splenic OT-1 T cells; assay type: in vivo; settings: OVA or FT peptide immunization with TLR ligand versus peptide alone; splenocytes up to 14 days; early after T-cell activation
From the text: Vaccine type can affect expression of T-cell checkpoint molecules on activated CD8+ T cells: This Example used an ovalbumin vaccination model. OT-1 cells were adoptively transferred to naïve C57BL/6 mice. The day after transfer, mice were immunized once with (a) DNA encoding ovalbumin, (b) Listeria monocytogenes (Lm) encoding ovalbumin, (c) OVA257-264 peptide (SIINFEKL (SEQ ID NO:1)), (d) SIINFEKL peptide (SEQ ID NO:1) with DNA vector, (e) DNA vector alone, (f) Lm encoding control vector with no antigen, or (g) NS (non-specific) peptide. Splenocytes were collected the day after vaccination for expression of cell surface markers on antigen-specific OT-1 cells. […] LAG-3 expression was not reduced in the presence of Lm co-administered with peptide.
TLR stimulation at the time of T-cell activation reduced expression of PD-1 in vivo: To determine whether TLR stimulation at the time of T-cell activation with vaccination elicited a similar reduction in PD-1 in vivo, OT-1 cells were adoptively transferred to naïve C57BL/6 mice as above, and immunized once with OVA or FT peptide (or non-specific peptide) one day later in the presence or absence of a TLR 1/2, TLR7, or TLR9 ligand. Splenocytes were collected from groups up to 14 days after immunization and evaluated for expression of 4-1BB, PD-1 and LAG-3.
Adoptive transfer and immunization of wild type C57BL/6 (B6) mice: OT-1 splenocytes were harvested and CD8+ T cells were isolated as described above. 2×10^6 OT-1 T cells were adoptively transferred into 6- to 10-week old female B6 mice via intraperitoneal injection. The day following transfer, mice were immunized subcutaneously with 100 μg SIINFEKL peptide (SEQ ID NO:1) in PBS without adjuvant, intradermally with 100 μg plasmid encoding full length secreted chicken egg ovalbumin (pCI-neo-sOVA (psOVA), Addgene plasmid #25098, Cambridge, MA), intraperitoneally with 5×10^6 cfu of a Listeria monocytogenes vector encoding ovalbumin (Lm-OVA, gift of JD Sauer), or vehicle or corresponding wild-type Lm or DNA plasmid vector. TLR agonists were co-injected with the vaccine at the following concentrations: 20 μg/mouse Pam3CSK4, 100 μg/mouse Gardiquimod, 50 μg/mouse ODN 1826, or vehicle. Mice were euthanized at the times indicated. Spleens were collected, processed as described above, and T-cell populations analyzed by flow cytometry. Data collected on different days were normalized using rainbow beads (Spherotech, Lake Forest, IL; RFP-30-5A).

Purified DC = test: IL-12 p70 ELISA of culture supernatant of TLR-agonist-stimulated DC; assay type: cell-based, mice; settings: 24 hours, IL12 p70 by ELISA, versus media alone
Method: FIGS. 14A-14D. Changes in PD-1 expression following TLR stimulation are mediated by IL-12 secreted from APCs. Panel A: Purified OT-1 T cells (T), B cells (B), or dendritic cells (DC) were activated with SIINFEKL peptide (SEQ ID NO:1, OVA) or with a non-specific peptide (NS) in the presence of either TLR1/2 (TLR1/2) agonist, TLR7 agonist (TLR7), or media alone. After 24 hours, cells were washed and co-cultured with naïve purified OT-1 CD8+ T cells for an additional 24 hours and then assessed for expression of the indicated surface receptors (4-1BB, CD3, PD-1, LAG3, CTLA-4, and TIM3) by flow cytometry. Shown is the MFI for each marker, with samples assessed in triplicate. Panel B: Purified DC were stimulated in the presence of TLR1/2 agonist, TLR7 agonist, or media alone. After 24 hours, media was collected and used for culture of purified OT-1 CD8+ T cells with naïve DC in the presence of SIINFEKL peptide (SEQ ID NO:1, OVA) or non-specific (NS) peptide. After 24 hours, cells were assessed for expression of the indicated surface receptors (4-1BB, PD-1, LAG3, and CTLA-4) by flow cytometry. Shown is mean and standard error of the MFI for each marker, with samples assessed in triplicate. Panel C: Purified DC were stimulated in the presence of TLR1/2 agonist (Pam3), TLR3 agonist (PolyIC), TLR4 agonist (MPLA), TLR7/8 agonists (Gard, R848), TLR9 agonist (ODN), or media only (none) for 24 hours. Culture supernatant was then evaluated for the presence of IL12 p70 by ELISA. Asterisks indicate significant (p<0.05) IL-12 release compared to media alone. Panel D: Purified DC were stimulated in the presence of TLR1/2 agonist, TLR7 agonist, or media alone. After 24 hours, medium was collected and used for culture of purified OT-1 CD8+ T cells with naïve DC in the presence of SIINFEKL peptide (SEQ ID NO:1, OVA) and, where indicated, 0.1 ng/ml IL-12 or 0.12 μg/mL anti-IL-12 antibody. After 24 hours, cells were assessed for expression of the indicated surface receptors (4-1BB, PD-1, LAG3, and CTLA-4) by flow cytometry. Shown is mean and standard error of the MFI for each marker, with samples assessed in triplicate and are representative of two similar experiments. Asterisks indicate P<0.01.
Changes in PD-1 expression following TLR stimulation are mediated by IL-12 secreted from APCs: TLR are expressed by both T cells and professional APC. To determine if the effects on T-cell checkpoint expression were mediated by direct effects of TLR ligands on T cells or APC, purified OT-1 T cells were activated with SIINFEKL peptide (SEQ ID NO:1) alone or in the presence of TLR1/2 or TLR7 agonist, or with purified DC or B cells pre-treated with TLR agonists. After 24 hours cells were evaluated for expression of 4-1BB, CD3, PD-1, LAG-3, CTLA-4, and TIM-3. […]

Compound | PD-1 expression on OT-1 CD8+ T cells in vivo (OT-1 CD8+ T cells) | secretion of IL-12 by DC (Purified DC)
CCNCc1nc2c(N)nc3ccccc3c2n1CC(C)(C)O [Gardiquimod] | significantly reduced | greatest secretion
Monophosphoryl Lipid A [MPLAs] | – | No significant secretion
Poly(I:C) [PolyI:C] | – | No significant secretion
Pam3CSK4 | significantly reduced | greatest secretion
